From patent publication US20150050219A1, “COLOURED SOLUTION IN PARTICULAR FOR USE IN SURGICAL METHODS FOR THE TREATMENT OF THE BODIES OF HUMANS OR ANIMALS” (BBS S.r.l., priority 2012, published 2015)

Test: density at 20° C.
Format: physicochemical
Details: temperature of 20° C.
Procedure: whilst the dye is defined by the formula (V) and is present in a weight ratio of 0.008% to the solvent. In particular, with the solvent consisting of perfluorooctane (VI), the solution has an absorbance equal to 1,403 at a wavelength of 580 nm. Said solution also has a density of 1,756 kg/l at a temperature of 20° C. (substantially equal to that of perfluorooctane alone which, at 20° C., is equal to 1,755).

## FC(F)(F)C(F)(F)C(F)(F)C(F)(F)C(F)(F)C(F)(F)C(F)(F)C(F)(F)F [perfluorooctane]
  density: 1,755 kg/l
